# Test system: streptozocin (STZ)-induced type I diabetes model of neuropathic pain
# Test: streptozocin (STZ)-induced type I diabetes model of neuropathic pain (von Frey mechanical withdrawal threshold)
# Type: in vivo
# Settings: rats, 10 mpk, as compared to 10 mpk of celecoxib; average of 6 rats (FIG. 3)
# Protocol: Diabetic neuropathic pain was modeled using streptozocin which targets and kills the pancreatic beta islet cells rendering the animals with type I diabetes. The rats were acclimated for one hour and tested for baseline thresholds before inducing diabetes. The baseline mechanical withdrawal thresholds were established using the von Frey mechanical nociceptive test with an electronic anesthesiometer (IITC, Woodland Hills, Calif.). Subsequently, streptozocin (55 mg/kg) in saline was injected via tail vein per previously reported methods (Aley, K. O. and Levine J. D. J. Pain 2001, 2, 146.). After five days the allodynia of diabetic rats was confirmed with the von Frey nociceptive assay. Rats were placed in clear acrylic chambers on a steel mesh floor. The hind paw of the rat was probed through the mesh with a rigid tip probe connected to the electronic readout pressure meter set to the maximum hold setting. The withdrawal thresholds per rat were measured 3-5 times at 1 minute intervals for each time point.
# The baseline diabetic allodynia was quantified again at the beginning of all test days. The rats were then administered vehicle or sEH inhibitor via oral gavage and tested at 30 min. 1, 2, 3, 4, 5, and 6 h for mechanical withdrawal thresholds. […]
smiles,measurement,value
CC(=O)N1CCC(NC(=O)NC23CC4CC(CC(C4)C2)C3)CC1 [UC1153],"pain response (% of baseline; below 60% of baseline is painful state, 100% is lack of enhanced pain detection)",significantly alleviate the pain response
